Numbers after ± are expanded uncertainties.
Columns and labels:
[1] = 303.15 K, 101.33 kPa, Liquid; for viscosity: Capillary tube (Ostwald / Ubbelohde) method; for speed of sound: Linear variable-path acoustic interferometer; for mass density: Pycnometric method
[2] = xn = mol fraction of the nth substance listed; conditions: 303.15 K, 101 kPa, Liquid, x1 = 0.5; for viscosity: Capillary tube (Ostwald / Ubbelohde) method; for speed of sound: Frequency=2 MHz; for mass density: Pycnometric method

| SMILES | viscosity [1] [mPa·s] | speed of sound [1] [m/s] | mass density [1] [kg/m3] | viscosity [2] [mPa·s] | speed of sound ([2]; variable-path interferometer) [m/s] | mass density [2] [kg/m3] | speed of sound ([2]; Linear variable-path acoustic interferometer) [m/s] |
| --- | --- | --- | --- | --- | --- | --- | --- |
| CCCCO [butan-1-ol] | 2.054 ± 0.21 | 1228.4 ± 1.9 | 804 ± 4 | – | – | – | – |
| CCOC(=O)c1ccccc1 [ethyl benzoate] | 1.749 ± 0.17 | 1345.4 ± 2 | 1042 ± 4 | – | – | – | – |
| CCOC(=O)c1ccccc1 [ethyl benzoate] + CCCO | – | – | – | 1.679 ± 0.17 | 1261.4 ± 1.9 | 918.5 ± 4 | – |
| COC(=O)c1ccccc1 [methyl benzoate] | 1.67 ± 0.17 | 1399.4 ± 2 | 1077 ± 4 | – | – | – | – |
| COC(=O)c1ccccc1 [methyl benzoate] + CCCO | – | – | – | 1.634 ± 0.16 | – | 944.5 ± 4 | 1296.6 ± 1.9 |
| CCCCCO [pentan-1-ol] | 3.012 ± 0.3 | 1252.4 ± 1.9 | 810 ± 4 | – | – | – | – |
| CCCO [propan-1-ol] | 1.61 ± 0.16 | 1189.2 ± 1.9 | 798 ± 4 | – | – | – | – |

Reference: the NIST ThermoML archive (doi:10.1016/j.jct.2013.09.005)
